Data taken from ChEMBL document CHEMBL3885861, “Open TG-GATES”.

Species on record: Rattus norvegicus
Experiment: Open TG-GATES - Regimen: Single
Type: toxicity, organism-based, Sprague-Dawley
Set-up: regimen Single, gender Male, age 6 weeks
Conditions: in vivo, po, route gavage; for APTT / Bas / Eos / Fbg / Hb / Ht / Lym / MCH / MCHC / MCV / Mono / Neu / PT / Plat / RBC / Ret / WBC: tissue Blood; for KIDNEY_L / KIDNEY_R / KIDNEY_TOTAL: tissue Kidney; for LIVER: tissue Liver; for A/G / ALP / ALT / AST / BUN / CRE / Ca / Cl / DBIL / GLC / IP / K / LDH / Na / PL / RALB / TBIL / TC / TG / TP / gamma-GTP: tissue Plasma
[1] = 0 mg/kg, 3 h, dose level Control
[2] = 0 mg/kg, 6 h, dose level Control
[3] = 0 mg/kg, 9 h, dose level Control
[4] = 0 mg/kg, 24 h, dose level Control

## CCN(CC)N=O [N-NITROSODIETHYLAMINE]
[1]
  TERMINAL_BW: 221 g
  APTT: 19.6 s
  Bas: 0.4%
  Eos: 1%
  Fbg: 223 mg/dL
  Hb: 13.7 g/dL
  Ht: 40%
  Lym: 77.8%
  MCH: 21.5 pg
  MCHC: 34.1%
  MCV: 63 fL
  Mono: 2.2%
  Neu: 18%
  PT: 12 s
  Plat: 127.6 x10_4/uL
  RBC: 635.6 x10_4/ul
  Ret: 7.2%
  WBC: 66.1 x10_2/uL
  KIDNEY_L: 1 g
  KIDNEY_R: 0.9 g
  KIDNEY_TOTAL: 1.9 g
  LIVER: 9.5 g
  A/G: 1.6
  ALP: 1051 IU/L
  ALT: 37.4 IU/L
  AST: 68.4 IU/L
  BUN: 10 mg/dL
  CRE: 0.4 mg/dL
  Ca: 10.3 mg/dL
  Cl: 102 meq/L
  DBIL: 0.07 mg/dL
  GLC: 194.2 mg/dL
  IP: 9 mg/dL
  K: 3.5 meq/L
  LDH: 169.8 IU/L
  Na: 140.8 meq/L
  PL: 132.8 mg/dL
  RALB: 3.4 g/dL
  TBIL: 0.1 mg/dL
  TC: 79.4 mg/dL
  TG: 42.4 mg/dL
  TP: 5.5 g/dL
  gamma-GTP: 1 IU/L
[2]
  TERMINAL_BW: 223.5 g
  APTT: 20.6 s
  Bas: 0.2%
  Eos: 1%
  Fbg: 218 mg/dL
  Hb: 13.5 g/dL
  Ht: 39.5%
  Lym: 79.6%
  MCH: 21.4 pg
  MCHC: 34.3%
  MCV: 62.5 fL
  Mono: 2.4%
  Neu: 16%
  PT: 12 s
  Plat: 130.4 x10_4/uL
  RBC: 631.8 x10_4/ul
  Ret: 6.9%
  WBC: 81.9 x10_2/uL
  KIDNEY_L: 1 g
  KIDNEY_R: 1 g
  KIDNEY_TOTAL: 2 g
  LIVER: 9.9 g
  A/G: 1.6
  ALP: 946.2 IU/L
  ALT: 34.2 IU/L
  AST: 72.4 IU/L
  BUN: 13.6 mg/dL
  CRE: 0.4 mg/dL
  Ca: 10.3 mg/dL
  Cl: 102.8 meq/L
  DBIL: 0.076 mg/dL
  GLC: 201.2 mg/dL
  IP: 7.8 mg/dL
  K: 3.6 meq/L
  LDH: 193 IU/L
  Na: 140.8 meq/L
  PL: 141.6 mg/dL
  RALB: 3.4 g/dL
  TBIL: 0.1 mg/dL
  TC: 82.2 mg/dL
  TG: 54.4 mg/dL
  TP: 5.5 g/dL
  gamma-GTP: 1.4 IU/L
[3]
  TERMINAL_BW: 228.4 g
  APTT: 18.5 s
  Bas: 0.8%
  Eos: 1.2%
  Fbg: 230.8 mg/dL
  Hb: 13.7 g/dL
  Ht: 39.7%
  Lym: 75.4%
  MCH: 21.6 pg
  MCHC: 34.5%
  MCV: 62.5 fL
  Mono: 2.6%
  Neu: 19.2%
  PT: 12 s
  Plat: 125.1 x10_4/uL
  RBC: 636 x10_4/ul
  Ret: 7.1%
  WBC: 92.6 x10_2/uL
  KIDNEY_L: 1 g
  KIDNEY_R: 1 g
  KIDNEY_TOTAL: 1.9 g
  LIVER: 10.1 g
  A/G: 1.6
  ALP: 875.4 IU/L
  ALT: 37.8 IU/L
  AST: 69 IU/L
  BUN: 13.8 mg/dL
  CRE: 0.4 mg/dL
  Ca: 10.4 mg/dL
  Cl: 103 meq/L
  DBIL: 0.08 mg/dL
  GLC: 206.4 mg/dL
  IP: 8 mg/dL
  K: 3.8 meq/L
  LDH: 196.4 IU/L
  Na: 140.6 meq/L
  PL: 141.6 mg/dL
  RALB: 3.4 g/dL
  TBIL: 0.1 mg/dL
  TC: 84.2 mg/dL
  TG: 56.8 mg/dL
  TP: 5.6 g/dL
  gamma-GTP: 1.4 IU/L
[4]
  TERMINAL_BW: 229.8 g
  APTT: 18.9 s
  Bas: 0%
  Eos: 1.2%
  Fbg: 226.2 mg/dL
  Hb: 13.5 g/dL
  Ht: 39.6%
  Lym: 82.6%
  MCH: 21.5 pg
  MCHC: 34.1%
  MCV: 63.2 fL
  Mono: 1.8%
  Neu: 13.8%
  PT: 11.7 s
  Plat: 128.8 x10_4/uL
  RBC: 627.2 x10_4/ul
  Ret: 6.6%
  WBC: 85.1 x10_2/uL
  KIDNEY_L: 1.1 g
  KIDNEY_R: 1 g
  KIDNEY_TOTAL: 2.1 g
  LIVER: 10.2 g
  A/G: 1.6
  ALP: 1035 IU/L
  ALT: 37.8 IU/L
  AST: 63.6 IU/L
  BUN: 14 mg/dL
  CRE: 0.4 mg/dL
  Ca: 10.5 mg/dL
  Cl: 103.6 meq/L
  DBIL: 0.07 mg/dL
  GLC: 208 mg/dL
  IP: 9.5 mg/dL
  K: 3.7 meq/L
  LDH: 190.6 IU/L
  Na: 141 meq/L
  PL: 150.6 mg/dL
  RALB: 3.3 g/dL
  TBIL: 0.1 mg/dL
  TC: 86.6 mg/dL
  TG: 57.8 mg/dL
  TP: 5.4 g/dL
  gamma-GTP: 1 IU/L
10 mg/kg, 3 h, dose level Low
  TERMINAL_BW: 222.2 g
  APTT: 18.5 s
  Bas: 0.4%
  Eos: 0.8%
  Fbg: 221.2 mg/dL
  Hb: 13.4 g/dL
  Ht: 39.5%
  Lym: 74.8%
  MCH: 21.3 pg
  MCHC: 33.9%
  MCV: 62.8 fL
  Mono: 2.2%
  Neu: 21.2%
  PT: 12.3 s
  Plat: 120.1 x10_4/uL
  RBC: 629.8 x10_4/ul
  Ret: 7.4%
  WBC: 85.8 x10_2/uL
  KIDNEY_L: 1 g
  KIDNEY_R: 1 g
  KIDNEY_TOTAL: 2 g
  LIVER: 9.3 g
  A/G: 1.7
  ALP: 906.2 IU/L
  ALT: 45 IU/L
  AST: 74.4 IU/L
  BUN: 10.8 mg/dL
  CRE: 0.4 mg/dL
  Ca: 10.2 mg/dL
  Cl: 103 meq/L
  DBIL: 0.062 mg/dL
  GLC: 190.2 mg/dL
  IP: 8.8 mg/dL
  K: 3.6 meq/L
  LDH: 194 IU/L
  Na: 141.2 meq/L
  PL: 123.4 mg/dL
  RALB: 3.4 g/dL
  TBIL: 0.1 mg/dL
  TC: 77.4 mg/dL
  TG: 34 mg/dL
  TP: 5.4 g/dL
  gamma-GTP: 1 IU/L
10 mg/kg, 6 h, dose level Low
  TERMINAL_BW: 226.2 g
  APTT: 18.6 s
  Bas: 0.6%
  Eos: 1%
  Fbg: 235 mg/dL
  Hb: 13.3 g/dL
  Ht: 39.1%
  Lym: 78%
  MCH: 20.7 pg
  MCHC: 34%
  MCV: 60.9 fL
  Mono: 2.4%
  Neu: 17.4%
  PT: 12.1 s
  Plat: 127.1 x10_4/uL
  RBC: 642.4 x10_4/ul
  Ret: 6.1%
  WBC: 90.2 x10_2/uL
  KIDNEY_L: 1 g
  KIDNEY_R: 1 g
  KIDNEY_TOTAL: 2 g
  LIVER: 10.3 g
  A/G: 1.5
  ALP: 923.4 IU/L
  ALT: 39 IU/L
  AST: 69 IU/L
  BUN: 14.2 mg/dL
  CRE: 0.4 mg/dL
  Ca: 10.4 mg/dL
  Cl: 103.2 meq/L
  DBIL: 0.078 mg/dL
  GLC: 199.2 mg/dL
  IP: 7.6 mg/dL
  K: 3.7 meq/L
  LDH: 220.8 IU/L
  Na: 140.6 meq/L
  PL: 144 mg/dL
  RALB: 3.3 g/dL
  TBIL: 0.1 mg/dL
  TC: 81 mg/dL
  TG: 62.6 mg/dL
  TP: 5.6 g/dL
  gamma-GTP: 1.2 IU/L
10 mg/kg, 9 h, dose level Low
  TERMINAL_BW: 226.3 g
  APTT: 18.1 s
  Bas: 0.8%
  Eos: 1%
  Fbg: 222.4 mg/dL
  Hb: 14 g/dL
  Ht: 40.2%
  Lym: 80.6%
  MCH: 21.7 pg
  MCHC: 34.8%
  MCV: 62.1 fL
  Mono: 2.4%
  Neu: 14.4%
  PT: 12.2 s
  Plat: 123.8 x10_4/uL
  RBC: 647 x10_4/ul
  Ret: 6.7%
  WBC: 100.3 x10_2/uL
  KIDNEY_L: 0.9 g
  KIDNEY_R: 1 g
  KIDNEY_TOTAL: 1.9 g
  LIVER: 10.3 g
  A/G: 1.6
  ALP: 1025.2 IU/L
  ALT: 38.6 IU/L
  AST: 67.2 IU/L
  BUN: 14.4 mg/dL
  CRE: 0.4 mg/dL
  Ca: 10.7 mg/dL
  Cl: 103.2 meq/L
  DBIL: 0.09 mg/dL
  GLC: 188.4 mg/dL
  IP: 8.3 mg/dL
  K: 3.9 meq/L
  LDH: 169.8 IU/L
  Na: 141.4 meq/L
  PL: 141.4 mg/dL
  RALB: 3.5 g/dL
  TBIL: 0.1 mg/dL
  TC: 76 mg/dL
  TG: 90.4 mg/dL
  TP: 5.7 g/dL
  gamma-GTP: 1.2 IU/L
10 mg/kg, 24 h, dose level Low
  TERMINAL_BW: 229.3 g
  APTT: 19.1 s
  Bas: 0.4%
  Eos: 1%
  Fbg: 235.6 mg/dL
  Hb: 13.5 g/dL
  Ht: 39.9%
  Lym: 78.4%
  MCH: 21.2 pg
  MCHC: 33.9%
  MCV: 62.5 fL
  Mono: 3%
  Neu: 16.6%
  PT: 11.9 s
  Plat: 124.7 x10_4/uL
  RBC: 638.2 x10_4/ul
  Ret: 6.6%
  WBC: 79.1 x10_2/uL
  KIDNEY_L: 1 g
  KIDNEY_R: 1 g
  KIDNEY_TOTAL: 2 g
  LIVER: 10.1 g
  A/G: 1.5
  ALP: 877 IU/L
  ALT: 34.8 IU/L
  AST: 64.4 IU/L
  BUN: 14.4 mg/dL
  CRE: 0.4 mg/dL
  Ca: 10.7 mg/dL
  Cl: 104.6 meq/L
  DBIL: 0.086 mg/dL
  GLC: 202.8 mg/dL
  IP: 9.4 mg/dL
  K: 4 meq/L
  LDH: 208.6 IU/L
  Na: 141.6 meq/L
  PL: 142.6 mg/dL
  RALB: 3.3 g/dL
  TBIL: 0.1 mg/dL
  TC: 73.8 mg/dL
  TG: 86.4 mg/dL
  TP: 5.5 g/dL
  gamma-GTP: 1.4 IU/L
